These results are taken from US20250134902A1, “DRUG REPURPOSING FOR DELAYED TREATMENT OF ISCHEMIC STROKE” (UNIVESRITY OF NORTH TEXAS HEALTH SCIENCE CENTER, priority 2022, published 2025).

Read-outs that look alike come from different tables or passages of the source.

One data set relates to rat blood. Description: Clotting (streak) assay of thrombotic potential. How it is done: Clotting assays. Thrombotic potential was assessed with trunk blood from donor rats using a protocol modified from Kim et al. (Kim et al., 2010). Oxeladin was compared to whole blood with or without the anticoagulant benzamidine and several other S1R ligands at doses 10× greater than those that stimulate the release of BDNF (Dalwadi et al., 2022; Dalwadi et al., 2017). Blood was rapidly collected into chilled, pre-weighed plastic tubes containing a known quality of EDTA disodium salt (>3.7 mM) electrostatically-coated onto the tube wall. Blood was prevented from coagulating by gently swirling the chilled EDTA-coated tube. The tube was weighed and the volume of collected blood calculated in order to compute the exact concentration of EDTA in the uncoagulated blood sample allowing us to determine which concentration of calcium to add back into the blood to initiate coagulation. Uncoagulated blood samples were stored chilled. The following was be dispensed into NUNC™ MICROWELL™ MiniTrays: 8 μL/well of normal saline containing a concentration of calcium 1.2 mM higher than that of the concentration of EDTA in the blood sample, 1 μL/well of oxeladin, 3 mM benzamidine anticoagulant positive control, or untreated or vehicle negative controls, and 1 μL/well of (EDTA-treated) uncoagulated rat blood. Plates were tilted at a 45° angle at 5, 15, 30, 45 and 60 minutes to observe coagulation (i.e., no streaking) and compared to the controls. Each triplicate well was scored by a treatment-blinded observer as Yes (coagulation, no streaking) or No (no coagulation, streaking). The experiment was repeated with two separate donor rats.
Referring to FIG. 5, the effect on thrombotic activity of test drugs, benzamidine anticoagulant positive control, or untreated or vehicle negative controls on whole blood from donor rats was assessed by tilting treated blood samples at a […] to observe coagulation (i.e., no streaking) between […] (top panel). Blood coagulation was represented by a value between 1 (no streaking, coagulation) and 0 (streaking, less or no coagulation), and values were assigned for each test drug, benzamidine, and untreated and vehicle controls (bottom panel). Quantitative results from these clotting assays, including coagulation half-life, are summarized below in Table 5.

A further data set concerns neuronal MN9D cell line. Description: BDNF secretion via in situ ELISA. Format: cell-based. To be noted: MN9D cells; for Efficacy of BDNF secretion: 24 hrs, normalized to maximal response of 10 μM 4-PPBP, mean ± SEM, asterisk = significantly different from 4-PPBP. The source says:
Measuring BDNF secretion via in situ ELISA. […] The in situ ELISA improves on traditional ELISA by seeding BDNF-secreting cells directly into the wells pre-coated with an anti-BDNF primary antibody. BDNF secreted by these cells is immediately captured by the primary antibody, drastically increasing the sensitivity and reproducibility of the ELISA assay. Intact cells are removed […] the addition of the secondary and tertiary antibodies. The amount of BDNF secreted from the neuronal MN9D cells was quantified using an in situ ELISA assay developed using the BDNF EMAX® ImmunoAssay kit (Cat. No. G7611, Promega, Madison, WI). Briefly, a NUNC™ MAXISORP™ flat-bottom, polystyrene, 96-well immunoplate was coated for 48 hrs at 4° C. with an anti-BDNF monoclonal antibody diluted 1:1000 v/v in carbonate buffer containing 25 mM sodium bicarbonate and 25 mM sodium carbonate, pH 9.7. Unbound antibody was removed by washing 5 times with 150 μL of TBST buffer (20 mM Tris-HCl, pH7.6, 150 mM NaCl, and 0.05% (v/v) TWEEN® 20), before blocking non-specific sites first with blocking buffer for 1 hr and then with culture medium for 2 hrs. Cells were seeded at 35,000 cells per well and incubated overnight at 37° C. in a humidified CO2 incubator. The following day, the wells were replaced with fresh culture media containing either experimental compounds or vehicle controls, then incubated for an additional 24 hours. In addition, on the same plate, but in separate wells, BDNF standards were added ranging in concentration from 15.6-250 pg/mL. After 24 hrs incubation with experimental compounds, the media was aspirated and 100 μL of Dulbecco's phosphate saline (D-PBS without Ca^2+ and Mg^2+ supplemented with 5 mM EDTA) was added to each well and incubated for 15 min at 37° C. to promote cell lifting. Cells were then detached from the bottom of wells by triturating in the center and around the edges of the well. After removing all cell debris, the wells were rinsed five times with 150 μL of TBST. The plate was then incubated with 1:500 v/v diluted polyclonal anti-human BDNF antibody for 2 hrs at room temperature. This antibody was removed, and wells were washed five times with 150 μL of TBST, before incubating with 1:200 v/v diluted polyclonal Anti-IgY HRP conjugate for 2 hrs at room temperature. Wells were then washed five times with 150 μL of TBST and the remaining specifically bound polyclonal antibody was detected with the 50 μL colorimetric HRP substrate 3,3′,5,5′-Tetramethylbenzidine (TMB). The reaction was terminated with 50 μL of 1 M HCl and the color intensity was quantified by measuring the absorbance at 450 nm using a FLEXSTATION® 3 plate reader (Molecular Devices, Sunnyvale, CA). […] A one-way ANOVA with a Bonferroni multiple comparisons post-hoc analysis (P<0.05) was applied to determine significant differences between groups.
Further, BDNF secreted from MN9D cells can be detected 24 hours after treatment with S1R ligand, whereas BDNF secreted from the B104 cell line takes 7 days to be detected (Fujimoto, et al., 2012).
An in situ ELISA approach was utilized because of its improved sensitivity related to its rapid capture of secreted BDNF (Balkowiec & Katz, 2000; Dalwadi, et al., 2017). […] Values are averages of 2-10 experiments±SEM, and each experiment was performed in triplicate. Statistical significance at P<0.05 was determined by ANOVA followed by a Bonferroni's post-hoc test and are marked with an asterisk.
On the technique in general: ELISA stands for enzyme-linked immunosorbent assay.

Data set [1] deals with T1, human Sigma-1 receptor (S1R) (Homo sapiens, UniProt Q99720).
T1 construct: expressed in transfected cells
T1 sequence (Q99720 whole entry): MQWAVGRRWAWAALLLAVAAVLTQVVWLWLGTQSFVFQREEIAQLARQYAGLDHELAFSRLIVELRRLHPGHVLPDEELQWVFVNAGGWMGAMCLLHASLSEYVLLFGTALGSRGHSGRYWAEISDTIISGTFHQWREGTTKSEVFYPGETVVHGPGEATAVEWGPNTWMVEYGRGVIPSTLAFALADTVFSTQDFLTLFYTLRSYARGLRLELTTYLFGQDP
Description: Radioligand competition binding at Sigma-1 receptor ([3H]-(+)-pentazocine, MCF-7-hS1R). How it is done: Measuring receptor density with radioligand binding.
Measuring the ligand affinities at SIR and S2R receptors by radioligand binding. […] Binding conditions were the same as described previously for the S1R (Schetz, et al., 2007): binding buffer (Tris 50 mM, pH=8.1 at 37° C.), ice-cold wash buffer (Tris 10 mM, pH=8.1 at 0-2° C.), and incubation time (3 hrs at 37° C.) with shaking. Non-specific binding for the S1R and S2R was determined in the presence of 5 μM BD1063 and […] haloperidol, respectively. Following incubation, receptors were collected via rapid filtration through GF/C filters (Brandel, Gaithersburg, MD) followed by washing three times with 3 mL of ice-cold wash buffer. Dried filters were transferred to vials filled with 3.5 ml of scintillation fluid, and the radioactivity was quantified on a liquid scintillation analyzer (TRICARB® 2800TR) from Perkin Elmer (Saint Louis, MO). Mean values from duplicate or triplicate determinations are reported along with their associated standard error of the mean (SEM). Ki values were calculated from IC50 values using the Cheng-Prusoff equation. The concentration of membrane protein was determined using a PIERCE® BCA Protein Assay kit (Life Technologies, Grand Island, NY) following the manufacturer's protocol.
Referring to FIG. 1, the selectivity of potential S1R ligands over S2R was empirically evaluated. Human MCF-7 cells were used as the source of the S2R because these cells express the endogenous S2R (Vilner, John, et al., 1995; Wu & Bowen, 2008) but lack detectable levels of the S1R, allowing unambiguous detection of S2R activity in untransfected cells (Schetz, et al., 2007). MCF-7 cells stably expressing the cloned human S1R were used as the source of S1R.
In general terms: Loss of bound radioactivity is the signal in a displacement assay; it reports binding, not function.

Setting [2] is: displacement of 0.5 nM [3H]-(+)-pentazocine, MCF-7 cells expressing human S1R, average of 2-3 experiments ± SEM, read-out: S1R affinity (Ki).

Regarding `Clc1ccc(N2CCN(Cc3c[nH]c4ncccc34)CC2)cc1` [L-745, 870], the “Coagulation Half-Life (λ1/2 ± SD)” value in the data set with rat blood (rat) is 11 ± 6 min.
`CCN(CC)CCOCCOC(=O)C1(c2ccccc2)CCCC1` [Carbetapentane]: the “Coagulation Half-Life (λ1/2 ± SD)” value in the data set with rat blood (rat) amounted to 23 ± 18 min. Also, the “Efficacy of BDNF secretion” value with neuronal MN9D cell line (10 μM) worked out at 0.73 ± 0.05. Besides, the Ki in data set [1] (setting [2]) was determined as 19.8 ± 2.3 nM.
As to `OC(CCCN1CCC(O)(c2ccc(Cl)cc2)CC1)c1ccc(F)cc1` (stereo not drawn) [Haloperidol Metabolite II], the “Coagulation Half-Life (λ1/2 ± SD)” value with rat blood (100 μM, rat blood) is 14 ± 11 min.
For `CCC(C/C=C/c1ccccc1)(c1ccccc1)N(C)CC1CC1` (single isomer, unassigned; (+)) [(+)-igmesine], in the data set with rat blood (rat), the “Coagulation Half-Life (λ1/2 ± SD)” value turned out to be 19 ± 16 min. The “Efficacy of BDNF secretion” value in the data set with neuronal MN9D cell line (10 μM) is 0.42 ± 0.03.
As for `CC(CN1c2ccccc2Sc2ccccc21)N(C)C` (stereo not drawn) [Promethazine], the “effect on thrombosis in blood” value in the data set on rat blood is recorded as “do not alter thrombosis”. In addition, the “Efficacy of BDNF secretion” value in the data set with neuronal MN9D cell line (10 μM) stood at 1.09 ± 0.34. Further, the “selective for S1R over S2R” value in data set [1] turned out to be 5 fold. Further, the Ki in data set [1] (receptor not given, S1R implied, read-out: affinity) is 157 nM.
On to `Cc1c(C2CCN(CCc3ccccc3)CC2)noc1-c1ccc(Cl)cc1` [L-741, 742], for which the “Coagulation Half-Life (λ1/2 ± SD)” value with rat blood (rat) is 11 ± 6 min.
Regarding `CCC(C(=O)OCCOCCN(CC)CC)c1ccccc1` (stereo not drawn) [Butamirate], in the data set on neuronal MN9D cell line (10 μM), the “stimulation of BDNF secretion” value is “With the exception of butamirate, all compounds were able to stimulate BDNF release”. In addition, in data set [1], the “selective for S1R over S2R” value worked out at 10 fold. The Ki in data set [1] (setting [2]) was determined as 17.2 ± 1.7 nM. The “S2R/S1R ratio (Ki S2R/Ki S1R)” value in data set [1] (selectivity for S1R over S2R) is given as 10.
Turning to `COc1ccc(CCN2CCN(CCCc3ccccc3)CC2)cc1OC` [SA4503], the “Coagulation Half-Life (λ1/2 ± SD)” value with rat blood (rat) was 11 ± 6 min.
For the compound `c1ccc(CCCCN2CCC(c3ccccc3)CC2)cc1` [4-PPBP], the “Coagulation Half-Life (λ1/2 ± SD)” value in the data set with rat blood (100 μM, rat blood) worked out at 11 ± 6 min. For the same compound, the “Efficacy of BDNF secretion” value in the data set with neuronal MN9D cell line (10 μM) came out at 1. Besides, the “BDNF secreted, maximal stimulation” value in the data set on neuronal MN9D cell line (10 μM, averaged ± SEM, n=3-10, baseline 75.4±6.9) worked out at 128.6 ± 12.8 pg/mL.
As for `CN1CCN(CCc2ccc(Cl)c(Cl)c2)CC1` [BD1063], the “reversal of S1R agonist-induced BDNF secretion” value in the data set on neuronal MN9D cell line (15 nM antagonist) was “reversed”.
`O=C(OCCN1CCOCC1)C1(c2ccccc2)CCCCC1` [PRE-084]: the “stimulation of BDNF secretion” value in the data set on neuronal MN9D cell line (10 μM) was “failed to stimulate BDNF secretion”.
In the case of `N=C(N)c1ccccc1` [Benzamidine], the “Coagulation Half-Life (λ1/2 ± SD)” value in the data set on rat blood (3000 μM, rat blood, positive control) is >1,440 minutes; with rat blood (3000 μM, rat blood, positive control, listed as positive control), > 1,440 minutes.
